# Experiments:
# [1] = system: PTH secretion; test: PTH secretion action, Experimental Example 2 (serum PTH after oral administration); format: in vivo, male SD rats; settings: comparative example, 30 mg/5 ml/kg oral
# [2] = system: PTH secretion; test: Concomitant administration of test compound and estrogen: blood PTH with time; format: in vivo, ovariectomized rats
# Method: The 13-week-old ovariectomized rats were divided into 4 groups of a control group (Group A), an estrogen administration group (Group B), a test compound administration group (Group C), and a test compound and estrogen concomitant administration group (Group D). One sham control group (E group) subjected to a sham surgery was also established. Estradiol was dissolved in 5% benzyl alcohol-corn oil and subcutaneously administered to an estrogen administration groups (Group B and Group D) at the dose of 10 μg/kg. 5% Benzyl alcohol-corn oil was subcutaneously administered to groups (Group A and Group C) free from administration of estrogen. The compound of Example 1-1 was suspended in 0.5% methyl cellulose solution and orally administered to groups (Group C and Group D) to be administered with the test compound at the dose of 3 mg/kg. As regards the groups (Group A and Group B) free from administration of the test compound, 0.5% methyl cellulose solution was orally administered.
# In addition, blood was drawn with time for the measurement of blood PTH at day 16 of administration. The blood was drawn in each group from the tail vein immediately before oral administration and 0.25, 0.5, 1, 2 and 4 hr later, and serum was obtained. For serum PTH measurement, a commercially available ELISA kit (“rat intact PTH ELISA kit”, Immutopics) was used.
# [3] = system: bone resorption; test: Concomitant administration of test compound and estrogen: bone resorption marker blood ICTP; format: in vivo, ovariectomized rats; settings: day 13, exclusive administration (Group B estradiol 10 μg/kg s.c.; Group C Example 1-1 3 mg/kg oral), mean ± S.D., n = 5
# Method: The 13-week-old ovariectomized rats were divided into 4 groups of a control group (Group A), an estrogen administration group (Group B), a test compound administration group (Group C), and a test compound and estrogen concomitant administration group (Group D). One sham control group (E group) subjected to a sham surgery was also established. Estradiol was dissolved in 5% benzyl alcohol-corn oil and subcutaneously administered to an estrogen administration groups (Group B and Group D) at the dose of 10 μg/kg. 5% Benzyl alcohol-corn oil was subcutaneously administered to groups (Group A and Group C) free from administration of estrogen. The compound of Example 1-1 was suspended in 0.5% methyl cellulose solution and orally administered to groups (Group C and Group D) to be administered with the test compound at the dose of 3 mg/kg. As regards the groups (Group A and Group B) free from administration of the test compound, 0.5% methyl cellulose solution was orally administered. On day 13 from the start of the administration, the blood was drawn in each group from the tail vein, and serum was obtained. ICTP, which is a blood bone resorption marker, was measured using a commercially available ELISA kit (“RatLaps ELISA kit”, Nordic Bioscience Diagnostics).
# [4] = target: T1, CYP2D6 (Homo sapiens, UniProt P10635); test: Metabolic enzyme CYP2D6 inhibitory activity (inhibition measurement kit); format: in vitro ADME; settings: enzyme activity free of test compound as 100%; >10 means over 10 μM
# T1 construct: purchased BD Bioscience
# T1 sequence (P10635 whole entry): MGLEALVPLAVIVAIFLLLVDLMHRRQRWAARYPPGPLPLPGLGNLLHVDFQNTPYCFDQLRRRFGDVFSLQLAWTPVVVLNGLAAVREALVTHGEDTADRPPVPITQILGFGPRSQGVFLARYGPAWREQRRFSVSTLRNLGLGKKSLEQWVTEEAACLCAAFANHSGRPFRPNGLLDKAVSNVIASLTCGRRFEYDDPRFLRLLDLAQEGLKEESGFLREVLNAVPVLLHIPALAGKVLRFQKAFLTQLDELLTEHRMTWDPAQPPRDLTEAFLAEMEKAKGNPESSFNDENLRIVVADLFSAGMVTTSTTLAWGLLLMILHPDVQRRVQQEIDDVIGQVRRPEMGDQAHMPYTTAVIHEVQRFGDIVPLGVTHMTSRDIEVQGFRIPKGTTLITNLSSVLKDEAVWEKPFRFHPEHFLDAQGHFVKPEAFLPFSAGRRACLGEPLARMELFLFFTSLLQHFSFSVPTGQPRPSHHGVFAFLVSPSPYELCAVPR
# Method: Using a metabolic enzyme CYP2D6 inhibition measurement kit (BD Bioscience) and following the manual of the kit, the inhibitory activity of the test compound was measured. With the enzyme activity free of the test compound as 100%, the concentration (IC50) showing 50% inhibition was determined. The results are shown in Table 63 and Table 64, wherein “>10” means over 10 μM.
# [5] = target: T2, human calcium receptor (Homo sapiens, UniProt P41180); test: Evaluation of antagonistic action on calcium receptor using reporter gene (luciferase); format: cell-based; settings: transformed rat adrenal derived cells, 5 mM calcium chloride, culture 4 hrs, luciferase activity; read-out: Reporter gene assay (IC50, concentration showing 50% inhibitory rate)
# T2 construct: expressed in transfected cells; host or cells: cell strain derived from rat adrenal, co-transformed with luciferase cDNA
# T2 sequence (P41180 20-1078): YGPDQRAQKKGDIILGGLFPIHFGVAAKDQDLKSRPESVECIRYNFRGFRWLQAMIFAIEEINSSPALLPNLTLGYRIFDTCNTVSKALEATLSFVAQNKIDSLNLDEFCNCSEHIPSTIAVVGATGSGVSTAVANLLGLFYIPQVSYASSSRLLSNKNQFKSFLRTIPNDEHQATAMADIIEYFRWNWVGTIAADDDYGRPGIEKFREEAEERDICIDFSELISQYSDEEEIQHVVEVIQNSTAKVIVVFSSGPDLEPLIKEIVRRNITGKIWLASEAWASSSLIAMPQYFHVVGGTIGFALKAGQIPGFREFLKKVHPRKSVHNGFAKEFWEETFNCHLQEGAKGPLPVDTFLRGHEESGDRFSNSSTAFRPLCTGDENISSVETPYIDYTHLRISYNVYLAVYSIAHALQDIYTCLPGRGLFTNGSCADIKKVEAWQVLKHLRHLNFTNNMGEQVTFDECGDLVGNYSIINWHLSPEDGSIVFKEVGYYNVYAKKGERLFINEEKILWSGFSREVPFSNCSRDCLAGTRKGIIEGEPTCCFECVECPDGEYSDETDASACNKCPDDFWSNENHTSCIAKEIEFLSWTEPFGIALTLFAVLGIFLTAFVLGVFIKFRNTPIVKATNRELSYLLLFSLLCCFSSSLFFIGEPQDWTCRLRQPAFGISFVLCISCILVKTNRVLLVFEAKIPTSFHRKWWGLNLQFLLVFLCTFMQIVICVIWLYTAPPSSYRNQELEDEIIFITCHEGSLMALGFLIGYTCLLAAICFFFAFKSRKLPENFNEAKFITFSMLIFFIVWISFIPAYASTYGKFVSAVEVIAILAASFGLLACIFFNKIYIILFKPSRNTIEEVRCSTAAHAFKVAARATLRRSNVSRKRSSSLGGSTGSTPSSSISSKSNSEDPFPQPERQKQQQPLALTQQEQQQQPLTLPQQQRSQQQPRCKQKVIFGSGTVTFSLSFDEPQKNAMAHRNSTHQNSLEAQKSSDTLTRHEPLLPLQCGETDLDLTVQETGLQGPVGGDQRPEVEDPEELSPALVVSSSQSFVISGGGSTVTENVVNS
# How it was run: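 Rat adrenal-derived cells transfected with luciferase and human calcium receptor cDNA, in F12 with 0.5% dialyzed horse serum and 0.25% dialyzed fetal bovine serum. Luciferase luminescence gave % inhibition vs control and blank; IC50 at 50% inhibition.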
# [6] = system: PTH secretion; test: PTH secretion action, Experimental Example 3 (serum PTH after oral administration); format: in vivo, male SD rats; settings: test compound administration group, 1 mg/5 ml/kg oral, rats fasted 20 hrs
# Method: The test compound was orally administered to 5 to 9-week-old male SD rats (Charles River Japan, Inc.) fasted for 20 hrs, using a solvent (0.5% methyl cellulose solution) at a dose of 1 mg/5 ml/kg. A solvent alone was orally administered to the control group at a dose of 5 ml/kg. The blood was drawn from the tail vein immediately before and 15 min, 30 min after administration of the test compound, and serum was obtained. The serum PTH concentration was measured using rat PTH ELISA kit (Amersham Biosciences).
# [7] = system: PTH release; settings: OVX rat, cited from earlier work
compound,measurement,setting,value
COc1ccc(-c2cccc(C(=O)O)c2)cc1C(OC[C@H](O)CNC(C)(C)Cc1ccc2ccccc2c1)C1CC1 (stereo partly drawn),PTH secretion activity,[1],no PTH secretion activity was exhibited
"C[C@]12CC[C@@H]3c4ccc(O)cc4CC[C@H]3[C@@H]1CC[C@@H]2O [Estradiol, reference compound]",Change of blood PTH with time,"[2]; Table 66, exclusive administration",increase in blood PTH was not observed
same,PTH (1–84) concentration 0.25 hr,"[2]; day 16, 0.25 hr, exclusive administration (Group B estradiol; Group C Example 1-1 3 mg/kg oral)",53.65 ± 56.31 pg/mL
same,PTH (1–84) concentration 0.5 hr,"[2]; day 16, 0.5 hr, exclusive administration (Group B estradiol; Group C Example 1-1 3 mg/kg oral)",56.55 ± 21.71 pg/mL
same,PTH (1–84) concentration 1 hr,"[2]; day 16, 1 hr, exclusive administration (Group B estradiol; Group C Example 1-1 3 mg/kg oral)",35.70 ± 21.30 pg/mL
same,PTH (1–84) concentration 2 hr,"[2]; day 16, 2 hr, exclusive administration (Group B estradiol; Group C Example 1-1 3 mg/kg oral)",41.94 ± 20.85 pg/mL
same,PTH (1–84) concentration 4 hr,"[2]; day 16, 4 hr, exclusive administration (Group B estradiol; Group C Example 1-1 3 mg/kg oral)",46.84 ± 14.62 pg/mL
same,PTH (1–84) concentration 0 hr,"[2]; day 16, immediately before oral administration, exclusive administration (Group B estradiol 10 μg/kg s.c.; Group C Example 1-1 3 mg/kg oral)",36.83 ± 14.45 pg/mL
same,Blood ICTP concentration,[3],20.93 ± 3.18 ng/mL
"C[C@@H](OC[C@H](O)CNC(C)(C)Cc1ccc2ccccc2c1)c1ccccc1-c1ccc(C(=O)O)c(Cl)n1 [Example 1-35, 2-chloro-6-[2-[1-[(2R)-3-[[1-(naphthalen-2-yl)-2-methylpropan-2-yl]amino]-2-hydroxypropoxy]ethyl]phenyl]pyridine-3-carboxylic acid]",IC50,[4],> 10000 nM
same,IC50,[5],10 nM
"Cc1ccc(CC(C)(C)NC[C@@H](O)CO[C@H](C)c2ccccc2-c2ccc(C(=O)O)c(Cl)n2)cc1F [Example 1-39, 2-chloro-6-[2-[1-[(2R)-3-[[1-(3-fluoro-4-methylphenyl)-2-methylpropan-2-yl]amino]-2-hydroxypropoxy]ethyl]phenyl]pyridine-3-carboxylic acid]",IC50,[4],> 10000 nM
same,IC50,[5],12 nM
"CC(C)=Cc1cc(-c2ccccc2[C@@H](C)OC[C@H](O)CNC(C)(C)Cc2ccc(C)c(F)c2)ccc1C(=O)O [Example 1-48, 2′-[1-[(2R)-3-[[1-(3-fluoro-4-methylphenyl)-2-methylpropan-2-yl]amino]-2-hydroxypropoxy]ethyl]-3-(2-methyl-1-propenyl)biphenyl-4-carboxylic acid]",IC50,[4],> 10000 nM
same,IC50,[5],2 nM
"Cc1cc(C(=O)O)ccc1-c1ccccc1[C@@H](C)OC[C@H](O)CNC(C)(C)Cc1ccc(Cl)c(Cl)c1 [Example 1-57, 2′-[1-[(2R)-3-[[1-(3,4-dichlorophenyl)-2-methylpropan-2-yl]amino]-2-hydroxypropoxy]ethyl]-2-methylbiphenyl-4-carboxylic acid]",IC50,[4],> 10000 nM
same,IC50,[5],27 nM
"C[C@@H](OC[C@H](O)CNC(C)(C)Cc1ccc2ccccc2c1)c1ccccc1-c1ccc(C(=O)O)c(F)c1 [Example 1-59, 3-fluoro-2′-[1-[(2R)-3-[[1-(naphthalen-2-yl)-2-methylpropan-2-yl]amino]-2-hydroxypropoxy]ethyl]biphenyl-4-carboxylic acid]",IC50,[4],> 10000 nM
same,IC50,[5],16 nM
"COc1cc(CC(C)(C)NC[C@@H](O)CO[C@H](C)c2ccccc2-c2ccc(C(=O)O)c(C)c2)ccc1C [Example 1-73, 2′-[1-[(2R)-3-[[1-(3-methoxy-4-methylphenyl)-2-methylpropan-2-yl]amino]-2-hydroxypropoxy]ethyl]-3-methylbiphenyl-4-carboxylic acid]",IC50,[4],> 10000 nM
same,IC50,[5],7 nM
"COc1cc(-c2ccccc2[C@@H](C)OC[C@H](O)CNC(C)(C)Cc2ccc(C)c(F)c2)ccc1C(=O)O [Example 1-80, 2′-[1-[(2R)-3-[[1-(3-fluoro-4-methylphenyl)-2-methylpropan-2-yl]amino]-2-hydroxypropoxy]ethyl]-3-methoxybiphenyl-4-carboxylic acid]",IC50,[4],> 10000 nM
same,IC50,[5],27 nM
"Cc1ccc(CC(C)(C)NC[C@@H](O)CO[C@H](C)c2ccccc2Oc2ccc(C(=O)O)cc2)cc1F [Example 2-1, 4-[2-[(1R)-[(2R)-3-[[1-(3-fluoro-4-methylphenyl)-2-methylpropan-2-yl]amino]-2-hydroxypropoxy]ethyl]phenoxy]benzoic acid]",IC50,[5],15 nM
same,Serum PTH concentration 15 min later,[6]; 15 min,25.1 ± 2.3 pg/mL
same,Serum PTH concentration 30 min later,[6]; 30 min,19.1 ± 0.9 pg/mL
"CC(OC[C@H](O)CNC(C)(C)Cc1cnc2ccccc2c1)c1ccccc1Oc1ccc(C(=O)O)cc1 (stereo partly drawn) [Example 2-5, 4-[2-[1-[(2R)-3-[[1-(quinolin-3-yl)-2-methylpropan-2-yl]amino]-2-hydroxypropoxy]ethyl]phenoxy]benzoic acid]",IC50,[4],> 10000 nM
same,IC50,[5],57 nM
"rat PTH (1-34): rat parathyroid hormone fragment (1-34) administered to OVX rat (AVSEIQLMHNLGKHLASVERMQWLRKKLQDVHNF; Parathyroid hormone; UniProt P04089 32-65, looked up, fragment)",Time until blood PTH returned to the original level,[7]; 5 μg/kg,2 h
same,Blood PTH concentration in 30 minutes,"[7]; rat PTH (1-34) 5 μg/kg, NPS-2143 100 μmol/kg",about 175 pg/ml

# Source: patent US7304174B2, “CaSR antagonist” (Japan Tobacco Inc., priority 2003, dated 2007)
